# Test results published in patent US8597901B2, “2,5-diketo-L-gluconic acid reductases and methods of use” (Danisco US Inc., priority 2000, dated 2013).
# Like-named read-outs stand apart in the source and are kept apart here.
# How the values were obtained:
# [1] = test system: environmental 2,5-diketo-D-gluconic acid reductase DKGRc (pI-14, SEQ ID NO: 8) variant R238Q; test: Kinetic parameters of purified R238Q mutant of DKGRc; assay type: biochemical, environmental DNA (uncultured, soil)
# Excerpt: Site specific mutants of DKGRc were constructed by overlap extension PCR. […] The oligonucleotides:
# were complementary to the antisense and sense strands, respectively, and introduced the changes K232Q and R238Q, respectively. The bases that differ from the native sequence are underlined. Each oligonucleotide was paired with the appropriate adapter primer (i.e. primers for amplifying the gene for insertion into expression vectors) in PCR's to generate fragments of the DKGRc gene that incorporated one of the two changes. Primers were also synthesized that matched the native DNA sequence. When used with the appropriate adapter primer, these generated an unmodified fragment of the gene. […] The amplification of the full-length genes was driven by addition of both adapter primers.
# [2] = test system: environmental 2,5-diketo-D-gluconic acid reductase (form not stated); details: read-out: apparent Km of stimulation by inorganic phosphate, NADH-dependent activity
structure (smiles),measurement,setting,value
"O=C(O)C(=O)[C@@H](O)[C@H](O)C(=O)CO [DKG, 2,5-diketo-D-gluconic acid]","Km for 2,5-diketo-D-gluconic acid, increase over native",[1]; R238Q versus native DKGRc,7.7 fold
same,Km,"[1]; R238Q, read-out: Km for 2,5-diketo-D-gluconic acid",440 µM
NC(=O)C1=CN([C@@H]2O[C@H](COP(=O)(O)OP(=O)(O)OC[C@H]3O[C@@H](n4cnc5c(N)ncnc54)[C@H](O)[C@@H]3O)[C@@H](O)[C@H]2O)C=CC1 [NADH],"Km for NADH, effect of mutation",[1]; R238Q versus native DKGRc,not affected by the mutation
same,"catalytic efficiency with NADH as cosubstrate, increase over native",[1]; R238Q versus native DKGRc,7 fold
same,kcat,"[1]; R238Q, NADH as cosubstrate",12 S^−1
same,Km,"[1]; R238Q, NADH as cosubstrate, read-out: Km, nadh",1900 µM
NC(=O)C1=CN([C@@H]2O[C@H](COP(=O)(O)OP(=O)(O)OC[C@H]3O[C@@H](n4cnc5c(N)ncnc54)[C@H](OP(=O)(O)O)[C@@H]3O)[C@@H](O)[C@H]2O)C=CC1 [NADPH],"Km for NADPH, increase over native",[1]; R238Q versus native DKGRc,18 fold
same,"kcat, increase over native","[1]; R238Q versus native DKGRc, NADPH",3.5 fold
same,Km,"[1]; read-out: Km, nadph, R238Q, NADPH as cosubstrate",55 µM
O=P(O)(O)O [Pi],Km,[2],1300 µM
